Data as given in patent publication US4342780A, “Method of depleting endogenous monoamines” (Merrell-Toraude et Cie, priority 1981, dated 1982).

Tests used:
[1] = tested on: dopamine, noradrenalin and 5-hydroxytryptamine content; test: Effect on catecholamines and 5-HT in brain regions of the rat 24 hours post-dose (Table IV); format: in vivo, Male Sprague-Dawley rats; conditions: 100 mg/kg i.p., ± S.E.M.
Protocol: The following example illustrates the effect of 2-amino-2-fluoromethyl-3-(3,4-dihydroxyphenyl)propionic acid on catecholamines and 5-HT in the brain.
Male Sprague-Dawley rats (200-300 g) from Charles River, France are housed in groups having free access to food and water. The animals are maintained on a 12 hour light-dark cycle at an ambient temperature of 23° C. The compound 2-amino-2-fluoromethyl-3-(3,4-dihydroxyphenyl)propionic acid is dissolved in 0.9% saline solution and administered as a single dose of 100 mg/kg, i.p. The animals are sacrificed 24 hours later and the brain is dissected on a chilled glass plate into six regions: the striatum, hypothalmus, olfactory tubercles, frontal cortex, cerebellum and brain stem. The tissues are weighed and homogenized in 600 microliters of ice-cold 0.4 Normal HClO4 reagent. The homogenate is centrifuged and dopamine, noradrenalin and 5-hydroxytryptamine are determined by reversed-phase ion-pair high pressure liquid chromatography using electrochemical detection.

[2] = tested on: catecholamine content (norepinephrine, dopamine); test: Catecholamine content in organs of rats after oral administration once daily for 15 days (Table III); format: in vivo, rats (Sprague-Dawley); conditions: 24 h after 15th dose, vs control; for % CHANGE Brain Dopamine: * not significant
Protocol: The test animals (e.g. mice or rats) are given the test compound in a suitable vehicle, either orally or by injection, each day over the period of time desired. The animals are kept on a constant time cycle, and body weights are measured daily. The animals are sacrificed by decapitation 12 to 24 hours after receiving the last dose of the test compound. Control animals receive the vehicle alone.
Immediately after death, the organs (brain, heart, and kidney) are removed and homogenized either in 50 ml phosphate buffer pH 6.8 for AADC determination or in ice-cold 0.4 M HClO4 containing 0.05% (w/v) EDTA and 0.1% (w/v) sodium bisulfite for catecholamine determination. AADC activity is determined by the ^14 CO2 trapping method of J. Christenson, supra (see Example 14) using DL-[1-^14 C]-dopa as the substrate. Catecholamines are determined by centrifuging the homogenate, adding the supernatant to alumina buffered to pH 8.0-8.4 to adsorb the catecholamines, re-extracting the catecholamines from the alumina with 0.2 M HClO4 and determining the catecholamines in the extracts using known procedures, such as by reversed-phase ion-pair HPLC with electrochemical detection.
Table III gives the results obtained by testing particular compounds of Formula I in rats (Sprague-Dawley) after oral administration of the test compound once daily for 15 days. AADC activity was not determined.

[3] = 5 mg/kg oral once daily 15 days
[4] = 10 mg/kg oral once daily 15 days
[5] = 15 mg/kg oral once daily 15 days
[6] = 20 mg/kg oral once daily 15 days

NC(CF)(Cc1ccc(O)c(O)c1)C(=O)O (stereo not drawn) [3,4-diOH-phenyl, 2-Amino-2-fluoromethyl-3-(3,4-dihydroxyphenyl)propionic acid]
5-Hydroxytriptamine, Cerebellum ([1]; control 30 ± 3, p < 0.01): 11 ± 3 ng/g
Dopamine, Brain Stem ([1]; control 37 ± 9): 13 ± 4 ng/g
Noradrenaline, Striatum ([1]; control 47 ± 13): 46 ± 24 ng/g
Noradrenaline, Cerebellum ([1]; control 137 ± 1, p < 0.001): 17 ± 3 ng/g
Noradrenaline, Olfactory Tubercles ([1]; control 360 ± 32, p < 0.01): 126 ± 29 ng/g
5-Hydroxytriptamine, Frontal Cortex ([1]; control 365 ± 23, p < 0.001): 19 ± 7 ng/g
Dopamine, Hypothalamus ([1]; control 399 ± 23): 280 ± 69 ng/g
Noradrenaline, Brain Stem ([1]; control 439 ± 47, p < 0.01): 143 ± 9 ng/g
5-Hydroxytriptamine, Striatum ([1]; control 591 ± 47, p < 0.001): 50 ± 16 ng/g
5-Hydroxytriptamine, Brain Stem ([1]; control 620 ± 35, p < 0.01): 136 ± 50 ng/g
5-Hydroxytriptamine, Olfactory Tubercles ([1]; control 699 ± 72, p < 0.01): 87 ± 31 ng/g
5-Hydroxytriptamine, Hypothalamus ([1]; control 1162 ± 306, p < 0.05): 199 ± 44 ng/g
Noradrenaline, Hypothalamus ([1]; control 1419 ± 107, p < 0.01): 631 ± 37 ng/g
Dopamine, Olfactory Tubercles ([1]; control 1954 ± 62, p < 0.001): 403 ± 44 ng/g
Dopamine, Striatum ([1]; control 7342 ± 357, p < 0.001): 1466 ± 156 ng/g
% CHANGE Brain Norepinephrine [2, 3]: -25%
% CHANGE Heart Norepinephrine [2, 3]: -56%
% CHANGE Brain Dopamine [2, 3]: -2%
% CHANGE Brain Norepinephrine [2, 4]: -47%
% CHANGE Heart Norepinephrine [2, 4]: -67%
% CHANGE Brain Dopamine [2, 4]: -8%
% CHANGE Brain Norepinephrine [2, 5]: -51%
% CHANGE Heart Norepinephrine [2, 5]: -68%
% CHANGE Brain Dopamine [2, 5]: -6%
% CHANGE Brain Norepinephrine [2, 6]: -49%
% CHANGE Heart Norepinephrine [2, 6]: -72%
% CHANGE Brain Dopamine [2, 6]: -10%
